According to the supplement of paper PMC10307832:

Assays:
Experiment in all cases: relative viability (nuclei count vs DMSO), 5 days (fraction); higher = more cells survive
[1] = tested on: 201T
Procedure, shortened: (§1)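 Lung cancer cell lines in 1536-well plates were dosed by pin tool the day after seeding, either with one drug alone or with a fixed anchor-drug dose plus five library-drug doses (not always all listed) in √10 steps. After 5 days, cells were fixed and their nuclei stained in one step (final 0.05% Triton X-100, 1% formaldehyde, 1 ug/ml Hoechst), then counted on 4× images. Relative viability is the nuclei count in treated wells divided by that in vehicle wells. Values are medians of duplicate plates.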

[2] = tested on: A-427
Procedure, shortened: as §1

[3] = tested on: BEN
Procedure, shortened: as §1

[4] = tested on: COR-L23
Procedure, shortened: as §1

[5] = tested on: EKVX
Procedure, shortened: as §1

[6] = tested on: EMC-BAC-2
Procedure, shortened: as §1

[7] = tested on: EPLC-272H
Procedure, shortened: as §1

[8] = tested on: HCC-44
Procedure, shortened: as §1

[9] = tested on: LCLC-103H
Procedure, shortened: as §1

[10] = tested on: LXF-289
Procedure, shortened: as §1

[11] = tested on: NCI-H1650
Procedure, shortened: as §1

[12] = tested on: NCI-H1651
Procedure, shortened: as §1

[13] = tested on: NCI-H1793
Procedure, shortened: as §1

[14] = tested on: NCI-H2023
Procedure, shortened: as §1

[15] = tested on: NCI-H2087
Procedure, shortened: as §1

[16] = tested on: NCI-H2126
Procedure, shortened: as §1

[17] = tested on: NCI-H3122
Procedure, shortened: as §1

[18] = tested on: NCI-H322M
Procedure, shortened: as §1

[19] = tested on: NCI-H358
Procedure, shortened: as §1

[20] = tested on: NCI-H596
Procedure, shortened: as §1

[21] = tested on: SK-LU-1
Procedure, shortened: as §1

[22] = tested on: SW 1573
Procedure, shortened: as §1

[23] = tested on: UMC-11
Procedure, shortened: as §1

SMILES: C=C1C(=O)O[C@@H](CCCCCCCC)[C@@H]1C(=O)O [C-75] + CC(=O)Nc1cccc(-n2c(=O)n(C3CC3)c(=O)c3c(Nc4ccc(I)cc4F)n(C)c(=O)c(C)c32)c1 [Trametinib] (partner 0.02 µM)
- relative viability ([1]; first compound 0.08 µM): 0.716
- relative viability ([1]; first compound 0.253 µM): 0.824
- relative viability ([1]; first compound 0.8 µM): 0.731
- relative viability ([1]; first compound 2.53 µM): 0.692
- relative viability ([1]; first compound 8 µM): 0.763
- relative viability ([2]; first compound 0.08 µM): 0.78
- relative viability ([2]; first compound 0.253 µM): 0.84
- relative viability ([2]; first compound 0.8 µM): 0.655
- relative viability ([2]; first compound 2.53 µM): 0.665
- relative viability ([2]; first compound 8 µM): 0.701
- relative viability ([3]; first compound 0.08 µM): 0.993
- relative viability ([3]; first compound 0.253 µM): 1.2
- relative viability ([3]; first compound 0.8 µM): 0.995
- relative viability ([3]; first compound 2.53 µM): 1.14
- relative viability ([3]; first compound 8 µM): 0.989
- relative viability ([4]; first compound 0.08 µM): 0.636
- relative viability ([4]; first compound 0.253 µM): 0.58
- relative viability ([4]; first compound 0.8 µM): 0.562
- relative viability ([4]; first compound 2.53 µM): 0.485
- relative viability ([4]; first compound 8 µM): 0.569
- relative viability ([5]; first compound 0.08 µM): 0.344
- relative viability ([5]; first compound 0.253 µM): 0.263
- relative viability ([5]; first compound 0.8 µM): 0.31
- relative viability ([5]; first compound 8 µM): 0.355
- relative viability ([6]; first compound 0.08 µM): 0.872
- relative viability ([6]; first compound 0.253 µM): 0.987
- relative viability ([6]; first compound 0.8 µM): 0.853
- relative viability ([6]; first compound 2.53 µM): 0.803
- relative viability ([6]; first compound 8 µM): 0.89
- relative viability ([7]; first compound 0.08 µM): 0.311
- relative viability ([7]; first compound 0.253 µM): 0.341
- relative viability ([7]; first compound 0.8 µM): 0.27
- relative viability ([7]; first compound 2.53 µM): 0.299
- relative viability ([7]; first compound 8 µM): 0.363
- relative viability ([8]; first compound 0.08 µM): 1.03
- relative viability ([8]; first compound 0.253 µM): 1.14
- relative viability ([8]; first compound 0.8 µM): 0.964
- relative viability ([8]; first compound 2.53 µM): 0.991
- relative viability ([8]; first compound 8 µM): 1.09
- relative viability ([9]; first compound 0.08 µM): 0.64
- relative viability ([9]; first compound 0.253 µM): 0.703
- relative viability ([9]; first compound 0.8 µM): 0.624
- relative viability ([9]; first compound 2.53 µM): 0.547
- relative viability ([9]; first compound 8 µM): 0.721
- relative viability ([10]; first compound 0.08 µM): 0.646
- relative viability ([10]; first compound 0.253 µM): 0.683
- relative viability ([10]; first compound 0.8 µM): 0.657
- relative viability ([10]; first compound 2.53 µM): 0.664
- relative viability ([10]; first compound 8 µM): 0.672
- relative viability ([11]; first compound 0.08 µM): 0.462
- relative viability ([11]; first compound 0.253 µM): 0.553
- relative viability ([11]; first compound 0.8 µM): 0.602
- relative viability ([11]; first compound 8 µM): 0.555
- relative viability ([12]; first compound 0.08 µM): 0.815
- relative viability ([12]; first compound 0.253 µM): 0.802
- relative viability ([12]; first compound 0.8 µM): 0.862
- relative viability ([12]; first compound 2.53 µM): 0.515
- relative viability ([12]; first compound 8 µM): 0.892
- relative viability ([13]; first compound 0.08 µM): 0.356
- relative viability ([13]; first compound 0.253 µM): 0.509
- relative viability ([13]; first compound 2.53 µM): 0.356
- relative viability ([13]; first compound 8 µM): 0.409
- relative viability ([14]; first compound 0.08 µM): 0.527
- relative viability ([14]; first compound 0.253 µM): 0.662
- relative viability ([14]; first compound 0.8 µM): 0.531
- relative viability ([14]; first compound 2.53 µM): 0.209
- relative viability ([14]; first compound 8 µM): 0.483
- relative viability ([15]; first compound 0.08 µM): 0.247
- relative viability ([15]; first compound 0.253 µM): 0.24
- relative viability ([15]; first compound 0.8 µM): 0.179
- relative viability ([15]; first compound 2.53 µM): 0.16
- relative viability ([15]; first compound 8 µM): 0.212
- relative viability ([16]; first compound 0.08 µM): 0.587
- relative viability ([16]; first compound 0.253 µM): 0.587
- relative viability ([16]; first compound 0.8 µM): 0.581
- relative viability ([16]; first compound 2.53 µM): 0.553
- relative viability ([16]; first compound 8 µM): 0.502
- relative viability ([17]; first compound 0.08 µM): 0.261
- relative viability ([17]; first compound 0.253 µM): 0.243
- relative viability ([17]; first compound 0.8 µM): 0.218
- relative viability ([17]; first compound 2.53 µM): 0.143
- relative viability ([17]; first compound 8 µM): 0.259
- relative viability ([18]; first compound 0.08 µM): 0.513
- relative viability ([18]; first compound 0.253 µM): 0.673
- relative viability ([18]; first compound 0.8 µM): 0.547
- relative viability ([18]; first compound 8 µM): 0.508
- relative viability ([19]; first compound 0.08 µM): 0.158
- relative viability ([19]; first compound 0.253 µM): 0.13
- relative viability ([19]; first compound 0.8 µM): 0.151
- relative viability ([19]; first compound 8 µM): 0.121
- relative viability ([20]; first compound 0.08 µM): 1.02
- relative viability ([20]; first compound 0.253 µM): 0.837
- relative viability ([20]; first compound 0.8 µM): 0.815
- relative viability ([20]; first compound 2.53 µM): 0.722
- relative viability ([20]; first compound 8 µM): 0.744
- relative viability ([21]; first compound 0.08 µM): 0.494
- relative viability ([21]; first compound 0.253 µM): 0.598
- relative viability ([21]; first compound 0.8 µM): 0.49
- relative viability ([21]; first compound 2.53 µM): 0.458
- relative viability ([21]; first compound 8 µM): 0.468
- relative viability ([22]; first compound 0.08 µM): 0.586
- relative viability ([22]; first compound 0.253 µM): 0.596
- relative viability ([22]; first compound 0.8 µM): 0.547
- relative viability ([22]; first compound 2.53 µM): 0.553
- relative viability ([22]; first compound 8 µM): 0.557
- relative viability ([23]; first compound 0.08 µM): 0.723
- relative viability ([23]; first compound 0.253 µM): 0.841
- relative viability ([23]; first compound 0.8 µM): 0.659
- relative viability ([23]; first compound 2.53 µM): 0.581
- relative viability ([23]; first compound 8 µM): 0.526
